30 molecules from patent publication US6855730B2, “3-methylidenyl-2-indolinone modulators of protein kinase” (Sugen, Inc., priority 1998, dated 2005) can be followed below.

Some results are limits rather than exact numbers.

Sequence of EGFR (P00533 25-1210): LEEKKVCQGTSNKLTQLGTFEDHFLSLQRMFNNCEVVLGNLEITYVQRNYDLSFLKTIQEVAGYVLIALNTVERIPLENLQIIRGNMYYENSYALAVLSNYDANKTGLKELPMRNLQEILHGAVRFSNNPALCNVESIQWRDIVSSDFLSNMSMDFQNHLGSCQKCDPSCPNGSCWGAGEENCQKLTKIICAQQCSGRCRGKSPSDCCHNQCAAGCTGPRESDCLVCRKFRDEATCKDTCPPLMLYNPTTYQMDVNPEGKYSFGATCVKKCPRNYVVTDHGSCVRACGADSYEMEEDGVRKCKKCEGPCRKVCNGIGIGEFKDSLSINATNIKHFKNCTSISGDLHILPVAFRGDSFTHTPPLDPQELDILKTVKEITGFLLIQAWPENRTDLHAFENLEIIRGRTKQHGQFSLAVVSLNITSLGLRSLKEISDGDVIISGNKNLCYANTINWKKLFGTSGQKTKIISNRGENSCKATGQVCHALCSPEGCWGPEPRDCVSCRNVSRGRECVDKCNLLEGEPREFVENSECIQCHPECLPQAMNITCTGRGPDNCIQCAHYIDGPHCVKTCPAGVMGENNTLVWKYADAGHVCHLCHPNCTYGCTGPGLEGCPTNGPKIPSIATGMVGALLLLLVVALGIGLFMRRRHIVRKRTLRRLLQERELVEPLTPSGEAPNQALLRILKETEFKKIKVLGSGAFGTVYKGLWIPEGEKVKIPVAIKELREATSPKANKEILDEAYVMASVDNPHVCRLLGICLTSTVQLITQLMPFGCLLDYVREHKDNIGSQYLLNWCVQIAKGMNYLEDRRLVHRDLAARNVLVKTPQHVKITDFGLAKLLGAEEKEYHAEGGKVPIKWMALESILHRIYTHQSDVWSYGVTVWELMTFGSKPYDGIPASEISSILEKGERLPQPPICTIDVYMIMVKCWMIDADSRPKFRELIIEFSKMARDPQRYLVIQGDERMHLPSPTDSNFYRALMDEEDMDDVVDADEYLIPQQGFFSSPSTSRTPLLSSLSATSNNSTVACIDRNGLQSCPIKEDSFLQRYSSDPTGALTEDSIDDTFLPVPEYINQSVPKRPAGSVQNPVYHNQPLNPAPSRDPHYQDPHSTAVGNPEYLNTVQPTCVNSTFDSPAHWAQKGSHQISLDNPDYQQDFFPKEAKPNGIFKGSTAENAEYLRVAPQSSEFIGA

This experiment concerns the target EGFR (Homo sapiens, UniProt P00533). Nature of the experiment: EGFR assay (cellular ELISA, NIH 3T3/C7 cells). In kind it is cell-based. To be noted: read-out: cell EGF IC50. More on the design: expressed in transfected cells; host or cells: NIH 3T3/C7. As for the experimental part:
EGF Receptor kinase activity in cells genetically engineered to express human EGF-R can be measured as described below:
Materials and Reagents. • a. […] 05-101 (UBI) (a monoclonal antibody recognizing an EGFR extracellular domain). • c. Anti-phosphotyosine antibody (anti-Ptyr) (polyclonal). • d. Detection antibody: Goat anti-rabbit IgG horse radish peroxidase conjugate, TAGO, Inc. Burlingame, Calif. • e. TBST buffer:
• Keep solution in dark at 4° C. until used. • h. Stock reagents of:
Pre-coat ELISA Plate • 1. […] Coated plates are good for up to 10 days when stored at 4° C. • 2. On day-of use, remove coating buffer and replace with blocking buffer (5% Carnation Instant NonFat Dry Milk in PBS). Incubate the plate, shaking, at room temperature (about 23° C. to 25° C.) for 30 minutes. Just prior to use, remove blocking buffer and wash plate 4 times with TBST buffer.
Seeding Cells • 1. […] Choose dishes having 80-90% confluence for the experiment. Trypsinize cells and stop reaction by adding 10% CS DMEM medium. Suspend cells in DMEM medium (10% CS DMEM medium) and centrifuge once at 1000 rpm at room temperature for 5 minutes. • 3. Resuspend cells in seeding medium (DMEM, 0.5% bovine serum), and count the cells using trypan blue. Viability above 90% is acceptable. Seed cells in DMEM medium (0.5% bovine serum) at a density of 10,000 cells per well, 100 μl per well, in a 96 well microtiter plate. Incubate seeded cells in 5% CO2 at 37° C. for about 40 hours.
Assay Procedures. • 1. Check seeded cells for contamination using an inverted microscope. Dilute test compounds stock (10 mg/ml in DMSO) 1:10 in DMEM medium, then transfer 5 μl to a test well for a test compounds drug dilution of 1:200 and a final DMSO concentration of 1%. Control wells receive DMSO alone. Incubate in 5% CO2 at 37° C. for one hour. • 2. Prepare EGF ligand: dilute stock EGF in DMEM so that upon transfer of 10 μl dilute EGF (1:12 dilution), 25 nM final concentration is attained. • 3. Prepare fresh 10 ml HNTG* sufficient for 100 μl per well wherein HNTG* comprises: HNTG stock (2.0 ml), milli-Q H2O (7.3 ml), EDTA, 100 mM, pH 7.0 (0.5 ml), Na3VO4 0.5 M (0.1 ml) and Na4(P2O7), 0.2 M (0.1 ml). • 4. Place on ice. • 5. After two hours incubation with drug, add prepared EGF ligand to cells, 10 μl per well, to yield a final concentration of 25 nM. Control wells receive DMEM alone. Incubate, shaking, at room temperature, for 5 minutes. • 6. Remove test compound, EGF, and DMEM. Wash cells twice with PBS. Transfer HNTG* to cells, 100 μl per well. Place on ice for 5 minutes. Meanwhile, remove blocking buffer from other ELISA plate and wash with TBST as described above. • 7. With a pipette tip securely fitted to a micropipettor, scrape cells from plate and homogenize cell material by repeatedly aspirating and dispensing the HNTG* lysis buffer. Transfer lysate to a coated, blocked, and washed ELISA plate. Incubate shaking at room temperature for one hour. • 8. Remove lysate and wash 4 times with TBST. Transfer freshly diluted anti-Ptyr antibody to ELISA plate at 100 μl per well. Incubate shaking at room temperature for 30 minutes in the presence of the anti-Ptyr antiserum (1:3000 dilution in TBST). • 9. Remove the anti-Ptyr antibody and wash 4 times with TBST. Transfer the freshly diluted TAGO 30 anti-rabbit IgG antibody to the ELISA plate at 100 μl per well. Incubate shaking at room temperature for 30 minutes (anti-rabbit IgG antibody: 1:3000 dilution in TBST). • 10. Remove detection antibody and wash 4 times with TBST. Transfer freshly prepared ABTS/H2O2 solution to ELISA plate, 100 μl per well. Incubate at room temperature for 20 minutes. ABTS/H2O2 solution: 1.2 μl 30% H2O2 in 10 ml ABTS stock. • 11. Stop reaction by adding 50 μl 5N H2SO4 (optional), and determine O.D. at 410 nm. • 12. The maximal phosphotyrosine signal is determined by subtracting the value of the negative controls from the positive controls. […]
For orientation: An ELISA detects its analyte on a solid surface through an enzyme-linked reagent.
Take `COc1c(C(C)C)cc(/C=C2/C(=O)Nc3cc(N)ccc32)cc1C(C)C` [Example 32, 6-Amino-3-(3,5-diisoprotyl-4-methoxy-benzylidene)-1,3-dihydroindol-2-one]: the concentration for half-maximal inhibition (IC50) – broadly, the concentration that inhibits the measured activity by half – was greater than 100 µM.

As to `CC(=O)Nc1ccc2c(c1)NC(=O)/C2=C\c1ccc2c(c1)CCC(C)(C)O2` [Example 33, N-[3-(2,2-Dimethylchroman-6-ylmethylene)-2-oxo-2,3-dihydro-1H-indol-6-yl]-acetamide], the IC50 was found to be 53.2 µM.

As to `COc1ccc(/C=C2/C(=O)Nc3ccccc32)cc1-c1ccsc1` [Example 35, 3-(4-Methoxy-3-thiophen-3-ylbenzylidene)-1,3-dihydroindol-2-one], the IC50 was greater than 100 µM.

`COc1cc(C)c(/C=C2/C(=O)Nc3ccc(Br)cc32)cc1C(C)C` [Example 36, 5-Bromo-3-(5-isopropyl-4-methoxy-2-methyl-benzylidene)-1,3-dihydroindol-2-one]: the half-inhibitory concentration (IC50) came out at 66.8 µM.

As to `COc1ccc(/C=C2/C(=O)Nc3ccc(F)cc32)cc1-c1ccccc1` [Example 37, 5-Fluoro-3-(6-methoxybiphenyl-3-ylmethylene)-1,3-dihydroindol-2-one], the IC50 was greater than 100 µM.

In the case of `COc1ccc(/C=C2\C(=O)Nc3cccc(C)c32)cc1C(C)C` [Example 38, 3-(3-Isopropyl-4-methoxybenzylidene)-4-methyl-1,3-dihydroindol-2-one], the IC50 is greater than 100 µM.

Consider `COc1cc(/C=C2/C(=O)Nc3ccccc32)c(-c2cccs2)cc1OC` [Example 39, 3-(4,5-Dimethoxy-2-thiophen-2-ylbenzylidene)-1,3-dihydroindol-2-one], for which the IC50 was greater than 100 µM.

With `CC(=O)Nc1ccc2c(c1)NC(=O)/C2=C/c1ccc(OCCN2CCOCC2)c(-c2cccs2)c1` [Example 40, N-{3-[4-(2-Morpholin-4-ylethoxy)-3-thiophen-2-ylbenzylidene]-2-oxo-2,3-dihydro-1H-indol-6-yl}-acetamide], the IC50 turned out to be 79 µM.

Turning to `Cc1cccc2c1/C(=C/c1ccc3c(c1)CCC(C)(C)O3)C(=O)N2` [Example 41, 3-(2,2-Dimethylchroman-6-ylmethylene)-4-methyl-1,3-dihydroindol-2-one], the half-inhibitory concentration (IC50) was greater than 100 µM.

`O=C1Nc2ccc(F)cc2/C1=C\c1ccc2c(c1)CCO2` [Example 42, 3-(2,3-Dihydrobenzofuran-5-ylmethylene)-5-fluoro-1,3-dihydroindol-2-one]: the IC50 is greater than 100 µM.

In the case of `COc1ccc(/C=C2/C(=O)Nc3ccc(F)cc32)cc1C1CCCCC1` [Example 43, 3-(3-Cyclohexyl-4-methoxybenzylidene)-5-fluoro-1,3-dihydroindol-2-one], the IC50 was greater than 100 µM.

With `COc1ccc(/C=C2/C(=O)Nc3ccc(F)cc32)cc1C(C)C` [Example 44, 5-Fluoro-3-(3-isopropyl-4-methoxybenzylidene)-1,3-dihydroindol-2-one], the half-inhibitory concentration (IC50) is 76.9 µM.

With `COc1cc(C)c(/C=C2/C(=O)Nc3ncccc32)cc1C(C)C` [Example 45, 3-(5-Isopropyl-4-methoxy-2-methylbenzylidene)-1,3-dihydro-pyrrolo[2,3-b]pyridin-2-one], the IC50 was greater than 100 µM.

As for `CCOc1cccc(-c2cc(C=C3C(=O)Nc4ccccc43)ccc2OC)c1` [Example 46, 3-(3′-Ethoxy-6-methoxybiphenyl-3-ylmethylene)-1,3-dihydroindol-2-one], the IC50 was greater than 100 µM.

Take `COc1ccc(/C=C2/C(=O)Nc3ncccc32)cc1C1CCCC1` [Example 47, 3-(3-Cyclopentyl-4-methoxybenzylidene)-1,3-dihydropyrrolo[2,3-b]pyridin-2-one]: the IC50 is greater than 100 µM.

Take `COc1ccc(/C=C2\C(=O)Nc3cccc(C)c32)cc1C1CCCC1` [Example 48, 3-(3-Cyclopentyl-4-methoxybenzylidene)-4-methyl-1,3-dihydroindol-2-one]: the IC50 was greater than 100 µM.

For the molecule `COc1cc(C=C2C(=O)Nc3ccccc32)c(-c2ccccc2OC)cc1OC` [Example 49, 3-(4,5,2′-Trimethoxybiphenyl-2-ylmethylene)-1,3-dihydroindol-2-one], the IC50 is greater than 100 µM.

Regarding `CC(=O)Nc1ccc2c(c1)NC(=O)/C2=C/c1ccc(OCCN2CCOCC2)c(-c2ccsc2)c1` [Example 50, N-{3-[4-(2-Morpholin-4-ylethoxy)-3-thiophen-3-ylbenzylidene]-2-oxo-2,3-dihydro-1H-indol-6-yl}-acetamide], the 50% inhibitory concentration (IC50) was greater than 100 µM.

On to `COc1ccc(/C=C2/C(=O)Nc3ccc(Cl)cc32)cc1C1CCCCC1` [Example 51, 5-Chloro-3-(3-cyclohexyl-4-methoxybenzylidene)-1,3-dihydroindol-2-one], for which the IC50 is greater than 100 µM.

For the molecule `COc1c(C(C)C)cc(/C=C2/C(=O)Nc3cc(NC(=O)OC(C)(C)C)ccc32)cc1C(C)C` [Example 52, [3-(3,5-Diisopropyl-4-methoxybenzylidene)-2-oxo-2,3-dihydro-1H-indol-6-yl]-carbamic acid tert-butyl ester], the IC50 was greater than 100 µM.

`COc1c(C(C)C)cc(/C=C2\C(=O)Nc3cccc(C)c32)cc1C(C)C` [Example 53, 3-(3,5-Diisopropyl-4-methoxybenzylidene)-4-methyl-1,3-dihydroindol-2-one]: the IC50 stood at 85 µM.

With `COc1c(C(C)C)cc(/C=C2/C(=O)Nc3ccc(Br)cc32)cc1C(C)C` [Example 54, 5-Bromo-3-(3,5-diisopropyl-4-methoxybenzylidene)-1,3-dihydroindol-2-one], the concentration for half-maximal inhibition (IC50) stood at 79.3 µM.

`CC(=O)Nc1ccc2c(c1)NC(=O)/C2=C/c1ccc(OCCN2CCOCC2)c(C(C)(C)C)c1` [Example 55, N-{3-[3-tert-Butyl-4-(2-morpholin-4-ylethoxy)-benzylidene]-2-oxo-2,3-dihydro-1H-indol-6-yl}-acetamide]: the half-inhibitory concentration (IC50) was 78.4 µM.

As to `COc1c(C)cc(/C=C2/C(=O)Nc3ncccc32)cc1C` [Example 56, 3-(4-Methoxy-3,5-dimethylbenzylidene)-1,3-dihydropyrrolo[2,3-b]pyridin-2-one], the IC50 is greater than 100 µM.

Consider `CC(C)c1cc(/C=C2/C(=O)Nc3ccc(Br)cc32)cc(C(C)C)c1OCCN1CCOCC1` [Example 57, 5-Bromo-3-[3,5-diisopropyl-4-(2-morpholin-4-ylethoxy)benzylidene]-1,3-dihydroindol-2-one], for which the IC50 is greater than 100 µM.

Take `CCOc1cccc(-c2cc(OC)c(OC)cc2/C=C2/C(=O)Nc3ccccc32)c1` [Example 58, 3-(3′-Ethoxy-4,5-dimethoxybiphenyl-2-ylmethylene)-1,3-dihydroindol-2-one]: the 50% inhibitory concentration (IC50) is greater than 100 µM.

Take `COc1ccc(/C=C2/C(=O)Nc3ccc(Cl)cc32)cc1-c1cccs1` [Example 59, 5-chloro-3-(4-Methoxy-3-thiophen-2-ylbenzylidene)-1,3-dihydroindol-2-one]: the IC50 is greater than 100 µM.

Consider `COc1ccc(/C=C2/C(=O)Nc3ccc(Cl)cc32)cc1-c1cccnc1` [Example 60], for which the IC50 is greater than 100 µM.

As for `COc1cccc(-c2cc(OC)c(OC)cc2/C=C2/C(=O)Nc3ccc(Cl)cc32)c1` [Example 61, 5-Chloro-3-(4,5-3′-Trimethoxybiphenyl-2-ylmethylene)-1,3-dihydroindol-2-one], the IC50 was greater than 100 µM.

Take `COc1cc(/C=C2/C(=O)Nc3ccccc32)c(-c2ccc3ccccc3c2)cc1OC` [Example 62, 3-(4,5-Dimethoxy-2-naphthalen-2-ylbenzylidene)-1,3-dihydroindol-2-one]: the IC50 was greater than 100 µM.
